# The supplement of paper PMC4954754
# “And” between values parts separate entries of the source, which are not always exact repeats. Identical values can stand only once.
# System: HEK293T-Rex XBP1-RLuc
# Experiment: EC50 for XBP1-RLuc reporter activation
# Details: 18 h
# Experimental: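 Dose-response of hit compounds in HEK293T-Rex cells stably expressing ERSE-FLuc or XBP1-RLuc reporters, 18 hr treatment, 1536-well; luminescence normalised to 500 nM thapsigargin (100%) and DMSO (0%), fitted to give EC50 (M) and maximal activation; '>' marks EC50 above the top tested dose (~17 µM).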
row,Compound,EC50 for XBP1-RLuc reporter activation
1,Cc1ccc(O)c(NC(=O)c2cc(CC(C)C)on2)c1,> 16.9 µM
2,Oc1ccc(-c2cn3ccccc3n2)cc1O,> 22.5 µM
3,O=C(COC(=O)c1ccc(O)c(O)c1)Nc1nc(-c2ccccc2)cs1,16.8 µM
4,CCCCCCOc1ccc(/C(C)=N/NC2=NCCN2)cc1[N+](=O)[O-],> 16.9 µM
5,Oc1ccc(-c2csc(-c3ccccc3)n2)cc1O,11.3 µM
6,NC(=O)c1c(NC(=O)c2cccc3ccccc23)sc2c1CCC2,> 16.9 µM
7,CCCCNc1ncnc2c1cnn2-c1ccc(Cl)cc1,> 19.5 µM
8,CCOC(=O)c1sc(NC(=O)c2cccc3ccccc23)nc1C,> 16.9 µM
9,CCN(CC)c1ccc2cc(-c3nc4ccccc4n3C)c(=O)oc2c1,> 10.6 µM
10,O=c1[nH]c(COc2ccccc2)nc2sc3c(c12)CCCC3,> 16.3 µM
11,COc1ccc(/C=C(\C#N)c2nc(-c3ccco3)cs2)cc1O,> 16.7 µM
12,N/C(=N\N=C\c1ccc(O)c(O)c1)c1nonc1N,> 16.9 µM
13,O=C1N/C(=C/c2ccc(O)cc2)C(=O)N1Cc1ccc(Br)cc1,4.02 µM
14,CC(=O)N1CCc2c([nH]c3ccccc23)C12CCN(CCCOc1ccccc1)CC2,2.11 µM
15,Cc1ccc(Nc2nc(N)c3ccccc3n2)cc1Cl,> 16.9 µM
16,Nc1ccc2sc(-c3cc(Cl)c(N)c(Cl)c3)nc2c1,> 16.9 µM
17,CS(=O)(=O)c1ncc(Cl)c(C(=O)C(C#N)c2nc3ccccc3s2)n1 (stereo unspecified),3.99 µM
18,CCC(=O)N(Cc1cc2cc(C)ccc2n2nnnc12)C1CCCC1,> 16.9 µM
19,Cc1ccc(O)c(NC(=O)c2cc(C3CC3)on2)c1,> 16.9 µM
20,CCn1c(/C(C#N)=C/c2ccc(OC)cc2)nc2ccccc21,> 19.4 µM
21,O=C1N/C(=C/c2ccc(O)cc2)C(=O)N1c1cccc(Cl)c1,3.04 µM
22,Nc1ccc2nc(-c3cc(Cl)c(N)c(Cl)c3)[nH]c2c1,> 13 µM

row,Compound,EC50 for XBP1-RLuc reporter activation
1,Oc1ccc(/C=N/Nc2cccc(Cl)n2)c(O)c1,> 16.9 µM
2,O=C(CCc1ccccc1)Nc1ccc(Cl)cn1,> 17.7 µM
3,CCCNC(=O)c1cc(-c2cccs2)on1,> 16.9 µM
4,COc1cn(-c2ccc(F)cc2)nc1C(=O)Nc1ccccc1SC,> 16.9 µM
5,Cc1ccc(O)c(NC(=O)CCc2ccccc2)c1,> 16.9 µM
6,C/C(=N\NC(=O)c1n[nH]c2c1CCCC2)c1ccc(Br)cc1,> 16.9 µM
7,C=CCn1c(N2CCC(C(=O)NCCc3ccc(O)c(O)c3)CC2)nc2ccccc21,7.94 µM
8,Cc1ccc(-c2csc(Nc3ccc(O)cc3)n2)cc1,8.04 µM
9,CCc1nc2sc(C(=O)c3ccccc3)c(N)c2cc1C,> 16.3 µM
10,O=[N+]([O-])c1ccccc1N/N=C/c1ccc(O)c(O)c1,> 16.9 µM
11,CC(C)CNC(=O)c1cc(-c2ccc(F)cc2)no1,> 16.9 µM
12,COc1ccc(/C=C(\C#N)c2nc3ccccc3n2C)cc1,> 16.9 µM
13,CCOc1cccc(/C=C2\NC(=S)N(C)C2=O)c1O,> 16.9 µM
14,CC(=O)Oc1ccc(C(=O)OCc2ccc(Cl)cc2)cc1OC(C)=O,> 18.6 µM
15,Cc1ccc(O)c(N/C=C/C(=O)c2ccc(F)cc2)c1,11.9 µM
16,O=C1c2cc(O)ccc2-c2ccc(O)cc21,8.87 µM
17,COc1ccc(-c2cnnc(N/N=C/c3ccc(O)c(O)c3)n2)cc1,16.8 µM
18,O=C(N/N=C/c1cccc(O)c1O)c1ccccn1,> 18.4 µM
19,Nc1ccc2nc(-c3ccc(Br)cc3)[nH]c2c1,17.3 µM
20,C=CCNC(=O)c1cc(-c2cccs2)on1,> 16.9 µM
21,Cc1ccc(O)c(NC(=O)CN(C)S(=O)(=O)c2ccc(Cl)cc2)c1,> 16.9 µM
22,N#C/C(=C(/O)c1cc(-c2ccccc2)nc2ccccc12)c1nc2ccccc2[nH]1,> 15.9 µM

row,Compound,EC50 for XBP1-RLuc reporter activation
1,O=C(/C=C/c1ccco1)Nc1ccccn1,> 16.9 µM
2,COc1ccccc1/C=C/C(=O)Nc1ccc(Cl)cn1,> 15.1 µM
3,Cc1cc2nc(/C(C#N)=C/c3ccco3)[nH]c2cc1C,> 16.9 µM
4,N#Cc1c(NC(=O)c2ccc(Br)cc2)sc2c1CCCC2,> 12.7 µM
5,O=C(Nc1ccc(O)cc1)c1c(O)c2c([nH]c1=O)CCCC2,> 16.1 µM
6,NC(=O)c1c(NC(=O)/C=C/c2ccccc2)sc2c1CCCCC2,> 16.9 µM
7,Cc1ccccc1-c1cc(=O)c2cc(Cl)ccc2o1,> 17 µM
8,CCOc1cccc(C(=O)Nc2ccc(Br)cn2)c1,> 15.1 µM
9,O=C(N/N=C\C(Cl)=C\c1ccccc1)c1n[nH]c2c1CCCC2,> 16.9 µM
10,COc1ccc(/C=C/c2nc3cc([N+](=O)[O-])ccc3s2)cc1O,> 18.5 µM
11,CCOc1ccc2nc(NC(=O)c3ccn(C)n3)sc2c1,> 14.4 µM
12,COc1c(O)cc2oc(-c3ccc(O)c(O)c3)cc(=O)c2c1O,8.02 µM
13,C(=N/Nc1nnc2c(n1)[nH]c1ccccc12)/c1c[nH]c2ccccc12,> 16.9 µM
14,Nc1nc(Nc2ccccc2)cc(-c2ccccc2)n1,> 17.2 µM
15,Cc1ccc2nc(/C(C#N)=C/c3ccc(O)c(O)c3)[nH]c2c1,> 16.9 µM
16,COc1ccc(/C(C)=N/OC/C(O)=C(\C#N)c2nc3ccccc3[nH]2)cc1OC,> 17.2 µM
17,O=C(/C=C/c1ccco1)Nc1ccc(Br)cc1Cl,> 16.9 µM
18,N#Cc1ccc(-c2cccs2)nc1SCc1ccccn1,> 16.4 µM
19,O=C1/C(=C/c2ccc(O)c(O)c2)Oc2cc(O)ccc21,> 16.9 µM
20,Nc1cn(-c2ccccc2)nc1-c1cccs1,3.71 µM
21,CC(C)c1ccc(/C=N\NC(=O)c2ccccc2)cc1,> 16.9 µM
22,CCN(CC)c1ccc(NC(=O)c2cccc(OC)c2)cc1,> 17.8 µM

row,Compound,EC50 for XBP1-RLuc reporter activation
1,CN(c1ccccc1)S(=O)(=O)c1cccc(C(=O)NCCc2ccc(O)c(O)c2)c1,8.35 µM
2,CN(C)/C=N/C1=C(C#N)C(c2ccc3c(c2)OCO3)c2ccc3ccccc3c2O1 (stereo unspecified),> 16.6 µM
3,Nc1ccc2nc(/C=C/c3ccccc3)[nH]c2c1,> 15.3 µM
4,CN(C)c1ccc(C(=NO)c2ccc(N(C)C)cc2)cc1,> 17.1 µM
5,CC(=O)Oc1cc(N2CCOCC2)c(OC(C)=O)c2c1C(=O)c1ccccc1C2=O,> 16.9 µM
6,Cc1nc(-c2coc3c(O)c(O)ccc3c2=O)cs1,> 16.9 µM
7,CN(C)c1ccc(/C=C/C(=O)NC(=O)c2ccccc2OC(=O)c2ccccc2)cc1,> 12.9 µM
8,Oc1cccc(Nc2nc(-c3ccc(O)c(O)c3)cs2)c1,16.5 µM
9,Cc1ccccc1NC(=O)c1sc2nc(N)c(C#N)c(-c3ccc(C(C)C)cc3)c2c1N,4.47 µM
10,Cc1ccc(C)c(/C=N/Nc2nncc3ccccc23)c1,> 17.1 µM
11,COc1ccc(CCNC(=O)c2cccc(-c3ccc(N4CCOCC4)nc3)c2)cc1,> 17 µM
12,O=C(NC1CCCC1)c1cc(-c2cccs2)on1,> 16.9 µM
13,COc1cccc(/C=N\NC(=O)c2n[nH]c3c2CCC3)c1,> 16.6 µM
14,C=CCNC(=O)c1cc(-c2ccc(F)cc2)on1,> 16.9 µM
15,COc1ccc(C2=Nn3c(nnc3-c3ccc(OC)cc3)SC2)cc1,> 16.9 µM
16,Cc1ccc(O)c(-c2cc(C(F)(F)C(F)F)no2)c1,> 16.7 µM
17,Cc1ccc2nc(/C(C#N)=C\c3cc(Cl)cc4c3OCOC4)[nH]c2c1,> 16 µM
18,O=c1cc(-c2ccc(O)c(O)c2)oc2ccccc12,> 17.1 µM
19,C/C=C(/C)C(=O)O[C@H]1C(C)=C2[C@H]([C@@H]1OC(=O)CCCCCCC)[C@@](C)(OC(C)=O)C[C@H](OC(=O)CCC)[C@@]1(O)[C@H]2OC(=O)[C@@]1(C)O,0.11 µM and 0.146 µM
20,O=c1[nH]c(/C=C2\C=Nc3ccccc32)c(O)n1-c1cccc(Cl)c1,2.18 µM
